The values below come from patent publication US20070244009A1, “Agent for Inhibiting Bolting Induction and/or Floral-Bud Differentiation in Plants” (National University Corporation Hokkaido Universit, priority 2004, published 2007).

“Also recorded” adds a separate entry of the source.

Experiment [1] concerns spinach (Spinacia oleracea L.). Put plainly: Stem elongation (bolting) of spinach after foliar spraying. The class given is in vivo. On the procedure:
(§1) In other words, while they searched for the substance having bolting induction inhibition and/or floral differentiation inhibition activities, they examine the effect of theobroxide on stem elongation and differentiation of floral-buds in spinach (long-day plant), after spraying theobroxide on the surfaces of spinach leaves. The day-length conditions examined were long-day (16 hours-light period, 8 hours-dark period), and short-day (10 hours-light period, 14 hours-dark period). The concentration of theobroxide for foliar application is set at 10^−3 M, and testing was started after a preliminary growth (two weeks, long-day condition). The spraying condition was that 5 ml of the solution was sprayed over four weeks every two days after the preliminary growth. As the results, under the short-day condition (bolting non-inducing condition), no difference was observed when compared to the control. Under the long-day condition (bolting induction and floral differentiation condition), the stem elongation of the theobroxide treated plants was suppressed 37% in the fourth week, when compared to that of the control.
(§2) Before the test, spinach was grown for 5 weeks in a growth chamber (NK Systems, Biotron NC350), under a short-day (SD) condition (light period-10 hours/dark period-14 hours) with a peat moss/Pearlite mixture (1:1.5, v/v). A test solution was sprayed on leaves every two days. Water and Hyponex in liquid form (manufactured by Hyponex Japan Co.) were given to the plants every two days and once a week, respectively. The long-day (LD) and short-day (SD) photoperiodic cycles were 16-hour light period/8-hour dark period, and 10-hours light period/14-hour dark period, respectively. The growth chamber was equipped with 20 fluorescent lamps (NEC FL40SEX-N-HG) to provide a light intensity of 90 μmol^−2s^−1, and set at 25 degrees centigrade and the relative humidity of 60%. The test used ten plants for each processing, and was repeated at least three times.
The theobroxide for the test was isolated from the incubation filtrate of Lasiodiplodia theobromae. The data of NMR, RI and MS were compared with the standard one and their structures were confirmed. Theobroxide was dissolved in distilled water that includes Tween 20 (100 ppm) to adjust its concentration to 10^−3M. To the plants for the control, the same amount of distilled water including 100 ppm of Tween 20 was given. The two kinds of solution were given to leaves of the plants, the total of 5 ml per plant, every two days, using plastic spray bottles. […] Stem heights from the bases of stems to the tip of the stems or the inflorescence were measured (Plant Physiol.: 821-827,1971).

In experiment [2] the test system is spinach (Spinacia oleracea L.). Put plainly: Floral differentiation of spinach after foliar spraying. The class given is in vivo. As to conditions: 10^-3 M foliar spray; for Floral Differentiation Rate (%) Average: mean of three tests. On the procedure:
as §1, §2
The theobroxide for the test was isolated from the incubation filtrate of Lasiodiplodia theobromae. The data of NMR, RI and MS were compared with the standard one and their structures were confirmed. Theobroxide was dissolved in distilled water that includes Tween 20 (100 ppm) to adjust its concentration to 10^−3M. To the plants for the control, the same amount of distilled water including 100 ppm of Tween 20 was given. The two kinds of solution were given to leaves of the plants, the total of 5 ml per plant, every two days, using plastic spray bottles. After planting them in advance, 20 boxes were transferred to the LD condition for a LD treatment (10 boxes of which was for control, and the other 10 boxes for the theobroxide treatment). After planting them in advance, 20 boxes were left under the SD for a SD treatment as before (10 boxes of which is for the control, and the other 10 boxes for theobroxide treatment). Stem heights from the bases of stems to the tip of the stems or the inflorescence were measured (Plant Physiol.: 821-827,1971).
In addition, in the tests shown in Table 1, plants were grown under a long-day condition for six weeks. The theobroxide treatment was started after they were transferred to the long-day condition. After six weeks, the plants were collected, and the number of the plants in which floral differentiation took place was counted.

The subject of experiment [3] is potato. To be noted: culture of a single node section of a potato stem; cited from earlier work.
The test system of experiment [4] is potato. As to conditions: solution sprayed to leaflets of potato, non-inducing conditions; cited from earlier work.
For experiment [5], the system named is morning glory. To be noted: solution sprayed to leaves of morning glory, non-inducing conditions; cited from earlier work.
In experiment [6] the test system is morning glory. To be noted: in vivo; cited from earlier work.

For the compound `CC1=CC(O)C2OC2C1O` (stereo not shown) [theobroxide, 3,6-dihydroxy-4,5-epoxy-1-methylcyclohexene], the “stem elongation (FIGS. 3A-B, FIG. 4), result in words” value in experiment [1] (induction condition (LD), theobroxide treatment) was “stem elongation was suppressed”. In experiment [1] (long-day (LD) condition, 10^-3 M foliar spray, after six weeks), the “suppression effect on stem lengths compared to the control” value was 37%. The “suppression of stem elongation compared to the control” value in experiment [1] (long-day condition, 10^-3 M foliar spray, 5 ml every two days, fourth week) is given as 37%. Further, in experiment [1] (short-day condition (bolting non-inducing), 10^-3 M foliar spray), the “difference in stem lengths compared to the control” value was “no difference; also recorded: not apparent difference”. In addition, in experiment [2] (long-day condition, six weeks, Test 1), the “Floral Differentiation Rate (%) Test 1” value was 50% (5/10). Also, in experiment [2] (long-day condition, six weeks, Test 2), the “Floral Differentiation Rate (%) Test 2” value is 40% (4/10). In addition, the “Floral Differentiation Rate (%) Average” value in experiment [2] (long-day condition, six weeks) is reported as 43.3%; in experiment [2] (long-day condition, six weeks, listed as Theobroxide), 43.3%. For the same compound, the “difference in flower formation compared to the control” value in experiment [2] (short-day condition) was “no difference; also recorded: not apparent difference”. Besides, in experiment [3], the “potato tuber formation activity” value is given as “strong potato tuber formation activity”. Moreover, the potato tuber formation result in experiment [4] is on record as “strong potato tuber formation”. Moreover, in experiment [5], the “flower buds inducing activity” value was “flower buds inducing activity”. For the same compound, the “effect on stem elongation of morning glory” value in experiment [6] is given as “inhibitory effect”.
